Consider three compounds from US20230072421A1, “TARGETED RADIOPHARMACEUTICALS FOR THE DIAGNOSIS AND TREATMENT OF PROSTATE CANCER” (Bayer AS, priority 2019, published 2023).

In assay [1] the test system is VCaP cells. The assay is described as follows: Cell proliferation assay (CellTiter-Glo, 5-day exposure), VCaP. It counts as cell-based. Particulars: 4000 cells/well, Th-227 labelled at 375 kBq/nmol, mean of 1 to 6 experiments. As to the method: (§1) Inhibition of cell proliferation of Thorium-227 labeled PMSA SMOL ligands was tested different prostate cancer cell lines, namely 22Rv1, VCaP, C4-2 (all from ATCC, Manassas, Va., USA) and LNCaP (DMSZ, Braunschweig). Cells were seeded using the following conditions in 384 well plates (Corning) in 30 μl of growth media at 4000 cells/well for VCaP cells and 1000 cells/well for 22Rv1, C4-2 and LNCaP cells.
(§2) Cells were cultivated an incubator at 37° C. and 5% C02 over night. […] In sister plates cell viability at treatment start (d=0) was determined using CellTiter-Glo® assay (CTG, Promega, Madison, Wis., USA), by adding 30 μl per well CTG solution, incubation for 10 min and reading of Luminescence in a PheraStarFSX instrument (BMG Labtech). After a 5-day exposure in the presenced of test compounds, cell viability of treated or untreated control cells was determined again using CellTiter-Glo® assay (Promega, Madison, Wis., USA). […] The DRC software is a Biobook Spreadsheet that was developed by Bayer AG and Bayer Business Services on the IDBS E-Workbook Suite platform (IDBS: ID Business Solutions Ltd., Guildford, UK).
(Cellular ATP, detected with luciferase, serves as a proxy for viable cell number.)

Assay [2] deals with C4-2 cells. The assay is described as follows: Cell proliferation assay (CellTiter-Glo, 5-day exposure), C4-2. Particulars: C4-2, 1000 cells/well, Th-227 labelled at 375 kBq/nmol, mean of 1 to 6 experiments. It is filed as cell-based. As to the method: as §1, §2
Assay [3] concerns 22Rv1 cells. The assay is described as follows: Cell proliferation assay (CellTiter-Glo, 5-day exposure), 22Rv1. Particulars: 22Rv1, 1000 cells/well, Th-227 labelled at 375 kBq/nmol, mean of 1 to 6 experiments. It counts as cell-based. The procedure: as §1, §2
The test system of assay [4] is LNCaP human prostate cancer cells. The assay is described as follows: LNCaP xenograft efficacy study (T/C tumor area). It is filed as in vivo, SCID mice. The note with it: Example IV; day 36 after start of therapy; once 1 MBq/kg. As to the method: SCID mice were randomly assigned to experimental groups, ten animals per group (efficacy) or n=3-5 per time point of biodistribution study. At the initiation of the study, a testosterone pellet was subcutaneously transplanted, the animals were shaved, tattooed and each cage was labeled with the cage number, study number and number of animals per cage.
LNCaP human prostate cancer cells were cultured as described according to the supplier's protocols. Cells were harvested for transplantation in a subconfluent (70%) state. Animals were injected with 5×10^6 LNCaP cells suspended in 100% Matrigel subcutaneously into the flank of the mice.
Efficacy study: When tumors reached a predetermined size in mice of 35-50 mm^2 animals were randomized into treatment and control groups (n=10 animals/group) and treatment with the defined radioactive dose was started. The i.v. application volume was 100 μl/mice.
Tumor response was assessed by determination of the tumor area (product of the longest diameter and its perpendicular) using a caliper. The animal body weight was monitored as a measure for treatment-related toxicity. Measurement of tumor area and body weight was performed two to three times weekly.
Animals were sacrificed when showing signs of toxicity (>20% body weight loss) or when tumors reached a size of approximately 200 mm^2.
Tumor growth inhibition is presented as T/C ratio (Treatment/Control) calculated with tumor areas when the vehicle control group had to be closed.

Structures are written as SMILES.

`Cc1cc(C(=O)NCCN(CCCN(CCNC(=O)c2cc(C)n(CC(=O)NCC3CCC(C(=O)NC(Cc4cnc5ccccc5c4)C(=O)NCCCCC(NC(=O)NC(CCC(=O)O)C(=O)O)C(=O)O)CC3)c(=O)c2[O-])CCNC(=O)c2cc(C)n(CC(=O)NCC3CCC(C(=O)NC(Cc4cnc5ccccc5c4)C(=O)NCCCCC(NC(=O)NC(CCC(=O)O)C(=O)O)C(=O)O)CC3)c(=O)c2[O-])CCNC(=O)c2cc(C)n(CC(=O)NCC3CCC(C(=O)NC(Cc4cnc5ccccc5c4)C(=O)NCCCCC(NC(=O)NC(CCC(=O)O)C(=O)O)C(=O)O)CC3)c(=O)c2[O-])c([O-])c(=O)n1CC(=O)O.[227Th+4]` (stereo not shown) [Example 22-C trimer-227Th]: the “Proliferation assay on cancer cell lines by TTCs Default Pivot #3 IC50 [kBq/mL] VCap 4000cells 375kBq/nmol (mean)” value in assay [1] is listed as 2.62 kBq/mL. Besides, the “Proliferation assay on cancer cell lines by TTCs Default Pivot #3 IC50 [kBq/mL] C4-2 1000cells 375kBq/nmol (mean)” value in assay [2] is listed as 1.82 kBq/mL. Further, in assay [3], the “Proliferation assay on cancer cell lines by TTCs Default Pivot #3 IC50 [kBq/mL] 22Rv1 1000cells 375kBq/nmol (mean)” value stood at 0.84 kBq/mL. Further, the T/Carea in assay [4] came out at 0.64.

For the compound `O=C([O-])CN1CCN(CC(=O)[O-])CCN(CC(=O)NCc2ccc(C(=O)N[C@@H](Cc3ccc4ccccc4c3)C(=O)NCCCC[C@H](NC(=O)N[C@@H](CCC(=O)O)C(=O)O)C(=O)O)cn2)CCN(CC(=O)[O-])CC1.[227Th+4]` [Example 26-B-227Th, [^227Th]Thorium (3S,10S,14S)-3-[(naphthalen-2-yl)methyl]-1,4,12-trioxo-1-{6-[(2-{4,7,10-tris[(carboxy-kappaO)methyl]-1,4,7,10-tetraazacyclododecan-1-yl-kappa^4N^1,N^4,N^7,N^10}acetamido)methyl]pyridin-3-yl}-2,5,11,13-tetraazahexadecane-10,14,16-tricarboxylate], the “Proliferation assay on cancer cell lines by TTCs Default Pivot #3 IC50 [kBq/mL] VCap 4000cells 375kBq/nmol (mean)” value in assay [1] came to 1.15 kBq/mL. In assay [2], the “Proliferation assay on cancer cell lines by TTCs Default Pivot #3 IC50 [kBq/mL] C4-2 1000cells 375kBq/nmol (mean)” value is 0.12 kBq/mL. Also, the “Proliferation assay on cancer cell lines by TTCs Default Pivot #3 IC50 [kBq/mL] 22Rv1 1000cells 375kBq/nmol (mean)” value in assay [3] was found to be 0.87 kBq/mL.

Consider `O=C([O-])CN1CCN(CC(=O)[O-])CCN(CC(=O)NCc2ccc(C(=O)N[C@@H](Cc3ccc4ccccc4c3)C(=O)NCCCC[C@H](NC(=O)N[C@@H](CCC(=O)O)C(=O)O)C(=O)O)cc2)CCN(CC(=O)[O-])CC1.[227Th+4]` [Example 24-B-227Th, [^227Th]Thorium (3S,10S,14S)-3-[(naphthalen-2-yl)methyl]-1,4,12-trioxo-1-{4-[(2-{4,7,10-tris[(carboxy-kappaO)methyl]-1,4,7,10-tetraazacyclododecan-1-yl-kappa^4N^1,N^4,N^7,N^10}acetamido)methyl]phenyl}-2,5,11,13-tetraazahexadecane-10,14,16-tricarboxylate], for which the “Proliferation assay on cancer cell lines by TTCs Default Pivot #3 IC50 [kBq/mL] VCap 4000cells 375kBq/nmol (mean)” value in assay [1] turned out to be 0.68 kBq/mL. In assay [2], the “Proliferation assay on cancer cell lines by TTCs Default Pivot #3 IC50 [kBq/mL] C4-2 1000cells 375kBq/nmol (mean)” value was found to be 0.12 kBq/mL. The “Proliferation assay on cancer cell lines by TTCs Default Pivot #3 IC50 [kBq/mL] 22Rv1 1000cells 375kBq/nmol (mean)” value in assay [3] amounted to 0.56 kBq/mL.
